# Source: paper PMC6100082, “Pyridine-Ureas as Potential Anticancer Agents: Synthesis and In Vitro Biological Evaluation” (Molecules : A Journal of Synthetic Chemistry and Natural …, 2018)
# Assays:
# PC-3 = test: NCI one-dose SRB assay (Prostate); assay type: cell-based, human
# Procedure: (§1) The structures of all the newly prepared pyridine-ureas 8a–n were submitted to the National Cancer Institute (NCI) Developmental Therapeutic Program. Eight compounds 8b, 8d, 8e, 8i, 8j and 8l–n were selected to be examined for their in vitro growth inhibitory activity. The anticancer assays were carried out according to the protocol of the Drug Evaluation Branch, NCI, Bethesda. The selected pyridine-ureas were tested at one dose primary anticancer assay against a panel of approximately 58 cancer lines (concentration 10^−5 M). The tested human cancer cell lines emerged from nine different cancer subtypes: leukemia, colon, melanoma, ovarian, lung, CNS, renal, breast and prostate cancers. The sulforhodamine B (SRB) protein assay was adopted to estimate the cell viability and growth. The results were reported as mean-graph of the percentage growth of the treated cells, and presented as percentage growth inhibition (GI%) caused by the test compounds (Table 2).
# (§2) The anticancer assays were performed in accordance with the protocol of the Drug Evaluation Branch, NCI, Bethesda. A 48 h drug exposure protocol was used and sulforhodamine B (SRB) protein assay was applied to estimate the cell viability and growth, as reported earlier.
# DU-145 = test: NCI one-dose SRB assay (Prostate); assay type: cell-based, human
# Procedure: as §1, §2
# A549/ATCC = test: NCI one-dose SRB assay (Non-Small Cell Lung Cancer); assay type: cell-based, human
# Procedure: as §1, §2
# NCI-H522 = test: as above; assay type: cell-based, human
# Procedure: as §1, §2
# HOP-62 = test: as above; assay type: cell-based, human
# Procedure: as §1, §2
# NCI-H226 = test: as above; assay type: cell-based, human
# Procedure: as §1, §2
# NCI-H460 = test: as above; assay type: cell-based, human
# Procedure: as §1, §2
# EKVX = test: as above; assay type: cell-based, human
# Procedure: as §1, §2
# HOP-92 = test: as above; assay type: cell-based, human
# Procedure: as §1, §2
# NCI-H322M = test: as above; assay type: cell-based, human
# Procedure: as §1, §2
# NCI-H23 = test: as above; assay type: cell-based, human
# Procedure: as §1, §2
# NCI 58 cell line panel = test: NCI one-dose SRB assay, whole panel / subpanel summary; assay type: cell-based, human
# Procedure: as §1, §2
# OVCAR-4 = test: NCI one-dose SRB assay (Ovarian Cancer); assay type: cell-based, human
# Procedure: as §1, §2
# OVCAR-3 = test: NCI one-dose SRB assay (Ovarian Cancer); assay type: cell-based, human
# Procedure: as §1, §2
# OVCAR-5 = test: NCI one-dose SRB assay (Ovarian Cancer); assay type: cell-based, human
# Procedure: as §1, §2
# BT-549 = test: NCI one-dose SRB assay (Breast Cancer); assay type: cell-based, human
# Procedure: as §1, §2
# MDA-MB-468 = test: NCI one-dose SRB assay (Breast Cancer); assay type: cell-based, human
# Procedure: as §1, §2
# HS 578T = test: NCI one-dose SRB assay (Breast Cancer); assay type: cell-based, human
# Procedure: as §1, §2
# MDA-MB-231 = test: NCI one-dose SRB assay (Breast Cancer); assay type: cell-based, human
# Procedure: as §1, §2
# MCF7 = test: NCI one-dose SRB assay (Breast Cancer); assay type: cell-based, human
# Procedure: as §1, §2
# T-47D = test: NCI one-dose SRB assay (Breast Cancer); assay type: cell-based, human
# Procedure: as §1, §2
# U251 = test: NCI one-dose SRB assay (CNS Cancer); assay type: cell-based, human
# Procedure: as §1, §2
# SNB-19 = test: NCI one-dose SRB assay (CNS Cancer); assay type: cell-based, human
# Procedure: as §1, §2
# SF-295 = test: NCI one-dose SRB assay (CNS Cancer); assay type: cell-based, human
# Procedure: as §1, §2
# SF-268 = test: NCI one-dose SRB assay (CNS Cancer); assay type: cell-based, human
# Procedure: as §1, §2
# SNB-75 = test: NCI one-dose SRB assay (CNS Cancer); assay type: cell-based, human
# Procedure: as §1, §2
# SF-539 = test: NCI one-dose SRB assay (CNS Cancer); assay type: cell-based, human
# Procedure: as §1, §2
# [1] = Homo sapiens, 10 μM, read-out: Percentage growth inhibition (GI%)
smiles,measurement,setting,value
"COc1ccc(-c2ccc(NC(=O)Nc3cccc(C(F)(F)F)c3)c(C)n2)cc1OC [Compound 8i, 1-(6-(3,4-Dimethoxyphenyl)-2-methylpyridin-3-yl)-3-(3-(trifluoromethyl)phenyl) Urea]",inhibition at 10 µM,"PC-3; Homo sapiens, PC-3, 10 μM, read-out: Percentage growth inhibition (GI%)",73%
same,Growth Percent,"PC-3; PC-3, 1.00E-5 Molar",27.45%
same,Growth Percent,"DU-145; DU-145, 1.00E-5 Molar",82.57%
same,inhibition at 10 µM,"DU-145; Homo sapiens, DU-145, 10 μM, read-out: Percentage growth inhibition (GI%)",18%
same,Growth Percent,A549/ATCC; 1.00E-5 Molar,60.26%
same,inhibition at 10 µM,A549/ATCC; [1],40%
same,inhibition at 10 µM,"NCI-H522; Homo sapiens, NCI-H522, 10 μM, read-out: Percentage growth inhibition (GI%)",60%
same,Growth Percent,"NCI-H522; NCI-H522, 1.00E-5 Molar",40.25%
same,Growth Percent,"HOP-62; HOP-62, 1.00E-5 Molar",92.32%
same,inhibition at 10 µM,"HOP-62; Homo sapiens, HOP-62, 10 μM, read-out: Percentage growth inhibition (GI%)",< 10%
same,inhibition at 10 µM,"NCI-H226; Homo sapiens, NCI-H226, 10 μM, read-out: Percentage growth inhibition (GI%)",28%
same,Growth Percent,"NCI-H226; NCI-H226, 1.00E-5 Molar",72.63%
same,inhibition at 10 µM,"NCI-H460; Homo sapiens, NCI-H460, 10 μM, read-out: Percentage growth inhibition (GI%)",39%
same,Growth Percent,"NCI-H460; NCI-H460, 1.00E-5 Molar",61.77%
same,Growth Percent,EKVX; 1.00E-5 Molar,66.90%
same,inhibition at 10 µM,EKVX; [1],34%
same,Growth Percent,"HOP-92; HOP-92, 1.00E-5 Molar",55.33%
same,inhibition at 10 µM,"HOP-92; Homo sapiens, HOP-92, 10 μM, read-out: Percentage growth inhibition (GI%)",45%
same,Growth Percent,NCI-H322M; 1.00E-5 Molar,92.59%
same,inhibition at 10 µM,NCI-H322M; [1],< 10%
same,inhibition at 10 µM,"NCI-H23; Homo sapiens, NCI-H23, 10 μM, read-out: Percentage growth inhibition (GI%)",29%
same,Growth Percent,"NCI-H23; NCI-H23, 1.00E-5 Molar",71.94%
same,inhibition at 10 µM,"NCI 58 cell line panel; Homo sapiens, 10 μM, one dose, read-out: mean inhibition (mean % growth inhibition over NCI 58 cell line panel)",22 to 34%
same,Mean Growth Percent,"NCI 58 cell line panel; One Dose Mean Graph, 1.00E-5 Molar",67.33%
same,inhibition at 10 µM,"OVCAR-4; Homo sapiens, OVCAR-4, 10 μM, read-out: Percentage growth inhibition (GI%)",41%
same,Growth Percent,"OVCAR-4; OVCAR-4, 1.00E-5 Molar",59.07%
same,inhibition at 10 µM,"OVCAR-3; Homo sapiens, OVCAR-3, 10 μM, read-out: Percentage growth inhibition (GI%)",31%
same,Growth Percent,"OVCAR-3; OVCAR-3, 1.00E-5 Molar",69.16%
same,inhibition at 10 µM,"OVCAR-5; Homo sapiens, OVCAR-5, 10 μM, read-out: Percentage growth inhibition (GI%)",< 10%
same,Growth Percent,"OVCAR-5; OVCAR-5, 1.00E-5 Molar",94.03%
same,Growth Percent,"BT-549; BT-549, 1.00E-5 Molar",71.52%
same,inhibition at 10 µM,"BT-549; Homo sapiens, BT-549, 10 μM, read-out: Percentage growth inhibition (GI%)",29%
same,inhibition at 10 µM,"MDA-MB-468; Homo sapiens, MDA-MB-468, 10 μM, read-out: Percentage growth inhibition (GI%)",51%
same,Growth Percent,"MDA-MB-468; MDA-MB-468, 1.00E-5 Molar",49.56%
same,Growth Percent,HS 578T; 1.00E-5 Molar,74.54%
same,inhibition at 10 µM,HS 578T; [1],26%
same,inhibition at 10 µM,"MDA-MB-231; Homo sapiens, MDA-MB-231, 10 μM, read-out: Percentage growth inhibition (GI%)",31%
same,Growth Percent,"MDA-MB-231; MDA-MB-231/ATCC, 1.00E-5 Molar",69.50%
same,inhibition at 10 µM,"MCF7; Homo sapiens, MCF7, 10 μM, read-out: Percentage growth inhibition (GI%)",38%
same,Growth Percent,"MCF7; MCF7, 1.00E-5 Molar",62.46%
same,Growth Percent,T-47D; 1.00E-5 Molar,53.57%
same,inhibition at 10 µM,"T-47D; Homo sapiens, T47D, 10 μM, read-out: Percentage growth inhibition (GI%)",47%
same,inhibition at 10 µM,"U251; Homo sapiens, U-251, U251, 10 μM, read-out: Percentage growth inhibition (GI%)",37%
same,Growth Percent,"U251; U251, 1.00E-5 Molar",63.88%
same,inhibition at 10 µM,"SNB-19; Homo sapiens, SNB-19, 10 μM, read-out: Percentage growth inhibition (GI%)",22%
same,Growth Percent,"SNB-19; SNB-19, 1.00E-5 Molar",78.84%
same,inhibition at 10 µM,"SF-295; Homo sapiens, SF-295, 10 μM, read-out: Percentage growth inhibition (GI%)",35%
same,Growth Percent,"SF-295; SF-295, 1.00E-5 Molar",65.28%
same,inhibition at 10 µM,"SF-268; Homo sapiens, SF-268, 10 μM, read-out: Percentage growth inhibition (GI%)",25%
same,Growth Percent,"SF-268; SF-268, 1.00E-5 Molar",75.96%
same,inhibition at 10 µM,"SNB-75; Homo sapiens, SNB-75, 10 μM, read-out: Percentage growth inhibition (GI%)",34%
same,Growth Percent,"SNB-75; SNB-75, 1.00E-5 Molar",66.71%
same,inhibition at 10 µM,"SF-539; Homo sapiens, SF-539, 10 μM, read-out: Percentage growth inhibition (GI%)",23%
same,Growth Percent,"SF-539; SF-539, 1.00E-5 Molar",77.24%
same,melting point,,235 to 237 °C
